Measurements published in ChEMBL document CHEMBL1949520, “Synthesis of terphenyl benzimidazoles as tubulin polymerization inhibitors” (2012).

How the values were obtained:
Type in all cases: functional
[1] = tested on: KB; experiment: Growth inhibition of human KB cells by SRB assay
[2] = Growth inhibition of human Gurav cells by SRB assay
[3] = tested on: ZR-75-1; experiment: Growth inhibition of human ZR-75-1 cells by SRB assay
[4] = tested on: SiHa; experiment: Growth inhibition of human SiHa cells by SRB assay
[5] = tested on: A2780; experiment: Growth inhibition of human A2780 cells by SRB assay
[6] = tested on: COLO 205; experiment: Growth inhibition of human COLO205 cells by SRB assay
[7] = tested on: A549; experiment: Growth inhibition of human A549 cells by SRB assay
[8] = Growth inhibition of human DWD cells by SRB assay
[9] = tested on: MCF7; experiment: Growth inhibition of human MCF7 cells by SRB assay
[10] = tested on: HOP-62; experiment: Growth inhibition of human HOP62 cells by SRB assay
[11] = tested on: PC-3; experiment: Growth inhibition of human PC3 cells by SRB assay

SMILES	GI50 [1] [µM]	GI50 [2] [µM]	GI50 [3] [µM]	GI50 [4] [µM]	GI50 [5] [µM]	GI50 [6] [µM]	GI50 [7] [µM]	GI50 [8] [µM]	GI50 [9] [µM]	GI50 [10] [µM]	GI50 [11] [µM]
COc1ccc(-c2ccc(-c3ccc(-c4nc5cc(C)ccc5[nH]4)cc3)cc2)cc1OC	2.19	1.31	3.1	3.51	2.13	2.32	2.1	1.72	0.19	2.12	2.56
Cc1ccc2[nH]c(-c3ccc(-c4ccc(-c5ccc(OC(F)(F)F)cc5)cc4)cc3)nc2c1	41.2	11	2.41	28.3	12.3	30.6	3.56	41.1	31	24.2	2.01
Oc1cccc2[nH]c(-c3ccc(-c4ccc(-c5ccc(OC(F)(F)F)cc5)cc4)cc3)nc12	3.31	3.6	3.8	8.41	2.9	8.32	0.19	3.1	2.21	2.27	7.41
FC(F)(F)c1ccc(-c2ccc(-c3ccc(-c4nc5ccccc5[nH]4)cc3)cc2)cc1	47.2	39.1	48.3	100	100	33.9	36.6	100	41.4	100	45.2
COc1cccc2c1C(=O)c1c(O)c3c(c(O)c1C2=O)C[C@@](O)(C(=O)CO)C[C@@H]3O[C@H]1C[C@H](N)[C@H](O)[C@H](C)O1 [DOXORUBICIN]	0.17	0.17	–	0.14	0.16	0.14	–	0.1	0.17	0.14	–
Fc1ccc(-c2ccc(-c3ccc(-c4nc5ccccc5[nH]4)cc3)cc2)cc1	41.3	100	100	29.7	48.2	100	33.2	35.6	36.2	39.3	41.2
FC(F)(F)Oc1ccc(-c2ccc(-c3ccc(-c4nc5ccccc5[nH]4)cc3)cc2)cc1	39.1	100	100	38.4	100	100	38	100	38.4	100	100
COc1ccc(-c2ccc(-c3ccc(-c4nc5ccccc5[nH]4)cc3)cc2)cc1OC	9.25	9.23	39.7	6.2	21.6	41.2	7.6	42.1	7.6	4.2	47.1
COc1ccc(-c2ccc(-c3ccc(-c4nc5c(O)cccc5[nH]4)cc3)cc2)cc1	4.9	6.63	8.2	4.8	8.64	1.63	7.69	6.4	3.11	3.21	6.61
Cc1ccc2[nH]c(-c3ccc(-c4ccc(-c5ccc(C(F)(F)F)cc5)cc4)cc3)nc2c1	41.2	12	2.41	33.2	12.3	30.6	3.52	38.2	31	24.2	2.01
Cc1ccc2[nH]c(-c3ccc(-c4ccc(-c5cccc(Cl)c5)cc4)cc3)nc2c1	2.26	2.12	3.45	3.6	2.8	2.78	2.8	2.51	1.21	2.74	2.67
COc1ccc(-c2ccc(-c3ccc(-c4nc5ccccc5[nH]4)cc3)cc2)cc1	47.2	38.1	35.1	2.76	100	45.2	38.1	100	33.3	100	100
Cc1ccc2[nH]c(-c3ccc(-c4ccc(-c5ccccc5)cc4)cc3)nc2c1	32.1	3.31	27.4	35.2	41.2	2.56	3.63	28.3	31.6	39.3	100
CN(C)c1ccc(-c2ccc(-c3ccc(-c4nc5c(O)cccc5[nH]4)cc3)cc2)cc1	4.2	8.21	4.1	6.24	3.01	6.32	7.1	9.21	2.31	8.25	8.42
CN(C)c1ccc(-c2ccc(-c3ccc(-c4nc5ccccc5[nH]4)cc3)cc2)cc1	39.3	100	100	100	100	100	30.1	100	41.2	100	100
Cc1ccc2[nH]c(-c3ccc(-c4ccc(-c5ccc(O)cc5)cc4)cc3)nc2c1	21.2	11.3	18.2	33.5	31.2	100	3.52	21.2	12.1	41.2	30
Oc1cccc2[nH]c(-c3ccc(-c4ccc(-c5ccc(C(F)(F)F)cc5)cc4)cc3)nc12	4.32	3.19	5.11	3.72	6.1	3.41	3.61	3.18	2.31	3.2	2.26
Clc1cccc(-c2ccc(-c3ccc(-c4nc5ccccc5[nH]4)cc3)cc2)c1	32.3	2.19	41.2	100	31.1	100	31.1	100	36.3	100	33.7
Cc1ccc2[nH]c(-c3ccc(-c4ccc(-c5ccc(N(C)C)cc5)cc4)cc3)nc2c1	6.24	6.24	7.2	7.11	2.21	9.21	3.51	3.23	3.13	4.23	8.12
Cc1ccc2[nH]c(-c3ccc(-c4ccc(-c5ccc(F)cc5)cc4)cc3)nc2c1	24.9	16.5	35	41	24.6	100	6.03	33.1	30.2	33.5	100
